Measurements reported in patent US11576901B2, “Methods for treating viral infection” (HOWARD UNIVERSITY, priority 2016, dated 2023).

Columns and labels:
Type in all cases: cell-based
HSV-1 = experiment: Plaque forming assay, Hep-2 cell monolayers infected with HSV-1; conditions: Hep-2 cells, 100 μM
Method: The ability of a virus to infect cells can be assessed using a plaque assay. In a plaque assay, an infected cell culture is grown under a nutrient gel. During culturing, the virus being study infects cells and replicates. However, the spread of virus to other cells is limited by the overlaying nutrient gel. As such, replicated virus released from one infected cell can only infect neighboring cells. The spread of virus amongst neighboring cells creates a plaque that can be visualized by staining. By counting the visible plaques, the amount of plaque forming units (pfu) per mL can be determined. If cells treated with a compound display a reduced amount of pfu compared to cells not treated with the compound after being infected with same amount of viral particles, then the reduction in pfu would have to be result of the ability of the […] virus. Thus, the ability of a compound in accordance with General Formula 1, including derivatives in accordance with any of General Formulae 1-1 to 1-20, to inhibit the ability of HSV-1 to proliferate can be assessed with a plaque assay.
Hep-2 cell monolayers were placed in well plates. The plated Hep-2 cells were treated with either DSMO as a control, 100 μM SD-29 or 100 μM SD29-12. A total of 6 well plates were prepared for each treatment condition. To each treated well plate an HSV-1 infecting solution comprising 1 mL of supernatants containing of the same amount of serially diluted HSV-1 particles were added. Accordingly, the treated well plates were infected with infection solutions containing the same amount of HSV-1 particles. After adsorption for 2 hours, the medium was removed and the treated cells were washed twice with serum-free DMEM and overlaid with phenol-free DMEM containing 5% FCS, 0.5% low-melting point agarose (GIBCO), and 1% penicillin-streptomycin. After either 0, 6, 12, 24 hours, the plaques present in each treated well plate were stained red and the number of plaques presented counted. Table 1 reports the mean plaque forming unit (pfu) determined for each treated well plate after averaging the number of pfu from the different plates receiving the same treatment.

[1] = system: HIV1 modified pNL4-3.Luc.R-E-virus; experiment: Western assay of HIV p24 gag expression in infected CEM T cells; conditions: Western assay with HIV p24 antibody, FIG. 4
From the text: The ability of a compound in accordance with General Formula 1, including derivatives in accordance with General Formulae 1-1 to 1-20, or pharmaceutically acceptable salts thereof, to inhibit the expression of at least a portion of a virus genome containing an IRES sequence can be also be determined by assessing the expression of a native protein within a viral genome. In some embodiments, the ability of a compound or pharmaceutically acceptable salt to inhibit expression of native protein can be assessed by using antibodies for a protein normally expressed from the virus genome. For example, HIV p24 gag is a protein normally expressed by HIV1 that can be detected using the HIVI p24 antibody. Accordingly, compounds in accordance with General Formula 1, including derivatives in accordance with any of General Formulae 1-1 to 1-20, or pharmaceutically acceptable salts thereof, can be assessed for the ability to inhibit proliferation of the HIV1 by infecting CEM T cells with the HIV1 modified pNL4-3.Luc.R-E-virus and assessing the expression of HIV p24 gag with the HIV p24 antibody. […]
A compound or salt may be wrongly classified as capable of inhibiting expression of at least a portion of a virus genome containing an IRES sequence due to unequal loading of proteins within an assay. […] In some embodiments, equivalent protein loading can be assessed by ponceau staining. […]

CEM T cells = experiment: Percent of viable CEM T cells after infection; conditions: CEM T cells after infection with HIV1 modified pNL4-3.Luc.R-E-virus; FIG. 3
From the text: It is possible that the diminished expression of a protein within the genome of a virus containing an IRES sequence may have been brought about by the compound inhibiting the ability infected cells to survive. If the compound or salt diminishes viability or is otherwise toxic to the cell, then diminished expression of a protein within the genome of a virus containing an IRES sequence may be the result of infected cells dying before sufficient levels of the protein can be expressed. Determining if diminished expression of a protein is the result of cell death or other toxic effects of the compound or salt may be accomplished by assessing the viability of cells after administration of the compound or salt. Accordingly, in some embodiments of assessing the ability of a compound in accordance with General Formula 1, including derivatives in accordance with any of General Formulae 1-1 to 1-20, or pharmaceutically acceptable salts thereof, to inhibit the expression of at least a portion of a virus genome containing an IRES sequence, the compound or salt may be assessed for its ability to preserve viability of cells following administration. […]

Nn1c(S)nnc1-c1ccc(F)cc1 [SD-29]
mean plaque forming unit (pfu) (HSV-1; 0 hpi): 0 pfu
mean plaque forming unit (pfu) (HSV-1; 6 hpi): 0 pfu
mean plaque forming unit (pfu) (HSV-1; 12 hpi): 100 pfu
mean plaque forming unit (pfu) (HSV-1; 24 hpi): 180000 pfu
number of pfu compared to DMSO control (in words) (HSV-1; Table 1 and FIG. 7): reduced number of pfu compared to control
expression of HIV p24 gag [1]: does inhibit expression
viability of the infected cells (CEM T cells): did not decrease viability
